Bridge positions count the residues as written; N and C are the ends. Square brackets hold non-standard residues; d marks the D form. Peptide text beside a SMILES is read from it. Cha = N[C@@H](CC1CCCCC1)C(=O)O
Test system: porcine coronary smooth muscles
Assay: Assay of constrictor suppressing activity on porcine coronary smooth muscles (antagonism of endothelin-1 constriction)
Type: cell-based
Details: for pA₂: antagonistic activity on constriction by endothelin-1 given cumulatively about 15 minutes after the compound, negative logarithm of molar concentration of antagonist shifting the dose response curve by a factor of 2; for Relative potency: antagonistic activity on the constriction of porcine coronary smooth muscles, Example 1 = 100
Procedure: • (1) Assay of Constrictor Suppressing Activity on Porcine Coronary Smooth Muscles Spiral strips 2 mm x 15 mm prepared from the coronary right ramus circumflexus from which the adventitial connective tissues and the endothelial cells were removed were set to 4 ml organ baths. The tension of each strip was detected by a force displacement transducer UL-10GR (Minebea), and recorded by a polygraph (NEC Sanei). The organ baths were maintained at 37°C, and filled with a Krebs-Henseleit solution (composition: 118 mM NaCl, 4.7 mM KCl, 2.5 mM CaCl₂, 1.2 mM KH₂PO₄, 25.0 mM NaHCO₃, 1.2 mM MgSO₄, 10.0 mM glucose) gassed with 95% O₂ and 5% CO₂. A tension of 1.25 to 1.5 g was applied to each of the strips, followed by equilibration for 1.5 hours. 60 mM KCl was repeatedly applied thereto at intervals of 30 minutes until the constriction response became constant. After additional equilibration for 1.5 hours, a sample for assay was given thereto. The constriction of the strips was normalized by the constriction response of the individual strips to 60 mM KCl and statistically processed. The suppressing activity was determined as a pA₂ value by giving endothelin-1 cumulatively about 15 minutes after the compound having a predetermined concentration was given, and comparing the constriction thereof with that of a control sample in which only endothelin-1 was given. […] Such a case has not been reported yet. […] The affinity for the receptor was assayed by the following method.

Compound	pA₂	Relative potency
CC[C@H](C)[C@H](NC(=O)[C@H](CC1CCCCC1)NC(=O)[C@@H](NC(=O)[C@H](CC(C)C)NC(=O)[C@H](Cc1c[nH]cn1)NC(=O)[C@@H]1CSSC[C@H](N)C(=O)N[C@@H](CO)C(=O)N[C@H]2CSSC[C@H](NC(=O)[C@H](CCC(=O)O)NC(=O)[C@H](CCCCN)NC(=O)[C@H](CC(=O)O)NC(=O)[C@H](CCSC)NC(=O)[C@H](CC(C)C)NC(=O)[C@H](CO)NC(=O)[C@H](CO)NC2=O)C(=O)N[C@@H](C(C)C)C(=O)N[C@@H](Cc2ccc(O)cc2)C(=O)N[C@@H](Cc2ccccc2)C(=O)N1)[C@@H](C)O)C(=O)N[C@@H](Cc1c[nH]c2ccccc12)C(=O)O [Example 2, [Thr¹⁸, Cha¹⁹]-ET-1] (H-CSCSSLMDKECVYFCHLT[Cha]IW-OH; disulfide 1-15, 3-11)	7.7	100
CC[C@H](C)[C@H](NC(=O)[C@H](CC(C)C)NC(=O)[C@@H](NC(=O)[C@H](CC(C)C)NC(=O)[C@H](Cc1c[nH]cn1)NC(=O)[C@@H]1CSSC[C@H](N)C(=O)N[C@@H](CO)C(=O)N[C@H]2CSSC[C@H](NC(=O)[C@H](CCC(=O)O)NC(=O)[C@H](CCCCN)NC(=O)[C@H](CC(=O)O)NC(=O)[C@H](C)NC(=O)[C@H](CC(C)C)NC(=O)[C@H](CO)NC(=O)[C@H](CO)NC2=O)C(=O)N[C@@H](C(C)C)C(=O)N[C@@H](Cc2ccc(O)cc2)C(=O)N[C@@H](Cc2ccccc2)C(=O)N1)[C@@H](C)O)C(=O)N[C@@H](Cc1c[nH]c2ccccc12)C(=O)O [Example 16, [Ala⁷, Thr¹⁸, Leu¹⁹]-ET-1] (H-CSCSSLADKECVYFCHLTLIW-OH; disulfide 1-15, 3-11)	7.2	32
